Test results reported in the METLIN SMRT retention time set (Domingo-Almenara et al. 2019).

Assay: gradient 5% acetonitrile 3 min, to 50% in 2 min, to 85% in 15 min, held 3 min, 100 µL/min
Conditions: column: Zorbax Extend-C18 2.1 x 50 mm; eluents: water / acetonitrile, 0.1% formic acid
In short: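 Using water and acetonitrile that each contained 0.1% formic acid, mixtures of ~100 pure standards were separated at 100 μL/min on a Zorbax Extend-C18 column (2.1 × 50 mm, 1.8 μm). The HPLC fed a quadrupole time-of-flight mass spectrometer working in positive and negative ionization mode, with dead and dwell volumes of 40 μL and 900 μL. Data were acquired over 3 months. Retention time was read from computationally picked adduct peaks after manual inspection of each.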
COc1ccc(OC)c(CNC(=O)c2cn3ccccc3n2)c1 gave an RP-LC retention time of 665 s.
With COc1cccc(-n2c(=O)c3sccc3n(Cc3nc(-c4cccc(C)c4)no3)c2=O)c1 the RP-LC retention time was 978 s.
Work on Cc1c(-c2cccc(NS(=O)(=O)c3ccc(Cl)cc3)c2)nc2ncccn12 yielded an RP-LC retention time of 627 s.
In the case of COC(=O)CNC(=O)N1CCc2cc(-c3ccc(C(=O)N4CCOCC4)cc3)ccc21, the RP-LC retention time is reported as 635 s.
Molecule O=C(CN1C(=O)CCS(=O)(=O)c2ccccc21)Nc1cccc(C(F)(F)F)c1 has an RP-LC retention time of 849 s.
For CS(=O)(=O)N1CC(C(=O)Nc2ccccc2)C2(CCCCC2)C1 (stereo unspecified), the RP-LC retention time was 875 s.
For COCC1CN(C)CC12CCN(S(=O)(=O)c1cc(F)ccc1C)CC2 (stereo unspecified), the RP-LC retention time was 661 s.
O=C(COc1ccccc1[N+](=O)[O-])N(Cc1ccccc1)Cc1ccccc1 gave an RP-LC retention time of 1000 s.
Work on CCOC(=O)c1c(C)c(CCC(=O)NCc2cn[nH]c2C)n(C)c1C yielded an RP-LC retention time of 663 s.
O=C(NCCCN1CCN(c2ccccc2)CC1)c1ccc(F)cc1F gave an RP-LC retention time of 590 s.
Molecule COCC1CN(C(=O)c2ccco2)CCC1(F)F (stereo unspecified) has an RP-LC retention time of 759 s.
Work on COc1ccc(/C=C2\N=C(c3ccccc3)OC2=O)c(OCc2ccccc2)c1 yielded an RP-LC retention time of 981 s.
CS(=O)(=O)N1CCC(C(=O)N2CCCCC2)Oc2ccc(Cl)cc21 (stereo unspecified) showed an RP-LC retention time of 793 s.
In the case of CCC(=O)Nc1cccn2nc(C3CCC3)nc12, the RP-LC retention time is reported as 735 s.
COc1ccccc1N1CCN(S(=O)(=O)c2cc(-c3csc(C)n3)ccc2C)CC1 showed an RP-LC retention time of 1160 s.
Work on CCCc1ccc(S(=O)(=O)N2CCC(c3noc(-c4cccc(C)c4)n3)CC2)cc1 yielded an RP-LC retention time of 1370 s.
In the case of CCN(CC)C(=O)c1ccc2c(c1)N(CC(=O)NCCN1CCN(C)CC1)C(=O)CO2, the RP-LC retention time is reported as 567 s.
In the case of CCCNC(=O)C1CCCN(c2nc3ncn(CC(=O)Nc4ccc(C(C)C)cc4)c(=O)c3s2)C1 (stereo unspecified), the RP-LC retention time is reported as 801 s.
In the case of CCOc1cc(=O)n2c(c1C(=O)Nc1ccc(C#N)cc1)CCCC2, the RP-LC retention time is reported as 708 s.
In the case of CN1C(=O)c2cc(S(=O)(=O)Nc3ccc(Cl)cc3F)ccc2Oc2cccnc21, the RP-LC retention time is reported as 962 s.
CCc1noc(NC(C)=O)c1-c1ccc(C)c(S(=O)(=O)Nc2cccc(C)c2C)c1 gave an RP-LC retention time of 897 s.
CC(C)N1C(=O)C(C)N(C(=O)NC2CCCC2)c2cccnc21 (stereo unspecified) gave an RP-LC retention time of 924 s.
With Cn1ncc2c3ccccc3n(CCCC(=O)N3CCCCC3)c2c1=O the RP-LC retention time was 824 s.
Molecule COc1cccc2cc(C(=O)NCc3cccnc3)oc12 has an RP-LC retention time of 564 s.
Work on O=C(c1ccc(Cl)cc1)N1CCC2(C1)C(=O)Nc1ccccc12 (stereo unspecified) yielded an RP-LC retention time of 765 s.
Work on CCSc1nnc(-c2nn(C)c3c2CN(S(=O)(=O)c2ccccc2Cl)CC3)n1CC yielded an RP-LC retention time of 948 s.
For Cc1cccc2c(C(=O)NC3CC3)cc(N3CCCC3)nc12, the RP-LC retention time was 593 s.
Molecule Cc1nn(CCCC(=O)N2CCOCC2)c(=O)c2nn(-c3ccccc3)c(C)c12 has an RP-LC retention time of 673 s.
Work on COc1ccc(-n2nc(C)c3sc(N4CCCC(C(=O)NC5CCCC5)C4)nc32)cc1 (stereo unspecified) yielded an RP-LC retention time of 1040 s.
For CCc1nnc2ccc(-c3noc(-c4cccc(F)c4)n3)cn12, the RP-LC retention time was 936 s.
With CCc1nncn1C1CCN(S(=O)(=O)c2cccc(C)c2)CC1 the RP-LC retention time was 697 s.
For CC(C)n1nc(CNC(=O)CNC(=O)c2ccccc2)c2ccccc21, the RP-LC retention time was 740 s.
For COCc1nncn1C1CCN(C(=O)C2(c3ccccc3)CC2)CC1, the RP-LC retention time was 650 s.
For N#Cc1ccccc1CN1CCCC(N2CCCC2)C1=O (stereo unspecified), the RP-LC retention time was 574 s.
Work on CCC1CN1P1(=O)OCC(C)([N+](=O)[O-])CO1 (stereo unspecified) yielded an RP-LC retention time of 721 s.
In the case of O=C(NCCc1csc2nc(-c3cccs3)nn12)c1c(F)cccc1Cl, the RP-LC retention time is reported as 792 s.
O=C(CC1c2ncccc2C(=O)N1c1ccccc1)N1CCN(c2ccccn2)CC1 (stereo unspecified) showed an RP-LC retention time of 683 s.
For COc1cccc(C(O)CN2CCN(c3ccc(F)cc3)CC2)c1 (stereo unspecified), the RP-LC retention time was 660 s.
Molecule O=C(NCC1CCCO1)C1CCN(Cc2cc3ccccc3n2Cc2ccc(F)cc2)CC1 (stereo unspecified) has an RP-LC retention time of 702 s.
For CCn1c(-c2cccc(C(N)=O)c2)nc2cccnc21, the RP-LC retention time was 591 s.
For COCc1cc2nn(CC(=O)Nc3ccc(F)cc3)c(=O)n2c(-c2ccccc2)n1, the RP-LC retention time was 903 s.
CC(C)n1nc(CNC(=O)c2cccs2)c2ccccc21 showed an RP-LC retention time of 845 s.
Work on CCc1noc(NC(C)=O)c1-c1ccc(OC)c(S(=O)(=O)Nc2ccc(C#N)cc2)c1 yielded an RP-LC retention time of 735 s.
With CCOC(=O)c1ccccc1NC(=O)N1CCOc2ccc(C)cc21 the RP-LC retention time was 1220 s.
For COc1ccc(OC)c(S(=O)(=O)N2CCCC(C(=O)N3CCOCC3)C2)c1 (stereo unspecified), the RP-LC retention time was 664 s.
Work on COc1ccc2c(CCN)c[nH]c2c1 yielded an RP-LC retention time of 565 s.
Molecule CC1CN(C(=O)Cn2cc(SCC(=O)N3CCCCC3)c3ccccc32)CC(C)O1 (stereo unspecified) has an RP-LC retention time of 783 s.
CN1CCc2nnc(C3CCN(C(=O)Nc4ccc(Cl)cc4C(F)(F)F)C3)n2CC1 (stereo unspecified) gave an RP-LC retention time of 610 s.
For COc1cc(Nc2nc3c(s2)CCCC3c2ccc(F)cc2)ccc1-n1cnc(C)c1 (stereo unspecified), the RP-LC retention time was 1010 s.
For O=C(NCCn1ncccc1=O)Nc1ccc(OC(F)(F)F)cc1, the RP-LC retention time was 674 s.
Molecule C=CCc1ccccc1OCC(O)CNC(C)C (stereo unspecified) has an RP-LC retention time of 706 s.
Work on COc1ccc(OC)c(NS(=O)(=O)c2c(C)nn(-c3ccc(-c4ccc(C)cc4)nn3)c2C)c1 yielded an RP-LC retention time of 1110 s.
Molecule COc1ccc(-c2ncc3c(=O)n(Cc4ccccc4Cl)c(=O)n(C)c3n2)cc1 has an RP-LC retention time of 1210 s.
CCOC(=O)CNC(=O)N1CCN(c2nc3ccccc3n(Cc3ccccc3)c2=O)CC1 showed an RP-LC retention time of 867 s.
Work on Cc1nnsc1C(=O)N1CCC(CNC(=O)NC(c2ccccc2)c2ccccc2)CC1 yielded an RP-LC retention time of 759 s.
Molecule CCN(CC)c1nc(C(=O)NCCN2CCOCC2)nc2nc(C)cc(C)c12 has an RP-LC retention time of 558 s.
Cc1nc(Nc2ncc3c(n2)CCCC3=O)nc2c(C)cccc12 showed an RP-LC retention time of 620 s.
Work on COc1ccc(-c2nnc(-c3cccc(S(=O)(=O)N4CCC(C)CC4)c3)o2)cc1OC yielded an RP-LC retention time of 1050 s.
With CC(C)c1ccc(-c2nc(-c3cccc(-c4ccnn4C)c3)no2)cc1 the RP-LC retention time was 1390 s.
Work on CCn1cnc2ccc(C(=O)NC3CC3)cc2c1=O yielded an RP-LC retention time of 714 s.
For COc1ccc(-c2c(C)noc2NC(C)=O)cc1S(=O)(=O)NCc1ccc(C)o1, the RP-LC retention time was 714 s.
Molecule Cc1cnc(C2CCC2)n1CCNC(=O)C1(c2ccccc2)CC1 has an RP-LC retention time of 654 s.
For COc1cc(C(=O)Oc2ccc(/C=C/c3ccccn3)cc2)cc(OC)c1OC, the RP-LC retention time was 689 s.
With Cc1cc(N2CCC(NC(=O)Nc3ccc(Cl)cc3F)C2=O)ccc1F (stereo unspecified) the RP-LC retention time was 923 s.
CN(C)C(=O)c1cc2c(s1)CCC(C(=O)Nc1ccc3c(c1)OCCO3)C2 (stereo unspecified) showed an RP-LC retention time of 764 s.
Molecule CCc1ccc(NS(=O)(=O)c2cc3[nH]c(=O)[nH]c3cc2C)cc1 has an RP-LC retention time of 719 s.
Work on Cc1nc(-c2cccc(F)c2)sc1CCNC(=O)Nc1ccc2c(c1)OCO2 yielded an RP-LC retention time of 817 s.
Molecule CN(CC1CCOC1)C(=O)Nc1cccc(C(F)(F)F)c1 (stereo unspecified) has an RP-LC retention time of 784 s.
With O=C([C@@H]1C[C@H](F)CN1C(=O)Nc1ccc(Cl)cc1)N1CCCCC1 the RP-LC retention time was 732 s.
Work on O=C(Cc1cccc(Cl)c1)N1CCc2cc(-c3ccno3)ccc21 yielded an RP-LC retention time of 1020 s.
In the case of CCn1cc(-c2ccc(Cl)cc2)cc1C(=O)NCCN1CCOCC1, the RP-LC retention time is reported as 705 s.
For CCOC(=O)C1CCN(S(=O)(=O)c2cc3n(c2)CCCNC3=O)CC1, the RP-LC retention time was 652 s.
CCn1cnc2ccc(-c3noc(Cc4ccc(OC)cc4)n3)cc21 showed an RP-LC retention time of 728 s.
In the case of CCn1c(C(=O)NCCCN2CCCCC2C)c(N2CCCC2=O)c2cc(F)ccc21 (stereo unspecified), the RP-LC retention time is reported as 654 s.
CC(C)NC(=O)N1CCN(Cc2nc3cccnc3n2-c2cccc(F)c2)CC1 gave an RP-LC retention time of 609 s.
In the case of CC(NC(=O)CN1C(=O)CCn2nc(-c3cn(C)c4ccccc34)cc21)c1ccc2c(c1)OCCO2 (stereo unspecified), the RP-LC retention time is reported as 797 s.
O=C(Nc1ccnn1Cc1cccs1)c1ccccc1Br gave an RP-LC retention time of 794 s.
CCC1CCCCN1CCCNC(=O)CCCn1c(=O)c2cccn2c2ccccc21 (stereo unspecified) showed an RP-LC retention time of 641 s.
Cn1cc2c3c(cccc31)CN(C(=O)c1c(F)cccc1F)CC2 gave an RP-LC retention time of 920 s.
Molecule COc1ccc(-n2ccc(=O)c(-c3nc(-c4ccc(C)cc4)no3)n2)cc1 has an RP-LC retention time of 932 s.
For O=C(c1cc(F)ccc1Cl)N1CCN(C(=O)c2nnn3c2COC(c2ccccc2)C3)CC1 (stereo unspecified), the RP-LC retention time was 894 s.
COc1ccc(NC(=O)Cn2cccc2-c2nnc(C3CCC3)o2)cc1Cl gave an RP-LC retention time of 951 s.
Cc1ccc2c(c1)OCC(=O)N2Cc1nc(-c2cccc(F)c2)no1 showed an RP-LC retention time of 1070 s.
Molecule CC(C)(C)C(=O)Nc1nnc(-c2cccs2)o1 has an RP-LC retention time of 652 s.
In the case of CSc1cccc(NC(=O)Cn2nc3n(c2=O)CCCC3)c1, the RP-LC retention time is reported as 669 s.
CCc1sc(NC(=O)c2cc3c([nH]c2=O)CCCC3=O)nc1-c1ccc2c(c1)CCCC2 showed an RP-LC retention time of 1170 s.
Work on CC(C)Sc1cc2c(cc1NC(=O)Cc1cccc(F)c1)n(C)c(=O)n2C yielded an RP-LC retention time of 987 s.
Work on O=S(=O)(CCc1noc(-c2ccc3c(c2)OCO3)n1)c1ccc(Cl)cc1 yielded an RP-LC retention time of 979 s.
With Cc1ccc(NS(=O)(=O)c2cn(CC(C)C)c3ncccc23)cc1C the RP-LC retention time was 1040 s.
Molecule CCOc1ccc(CNC(=O)c2nnn(Cc3nc(-c4cccc(C)c4)oc3C)c2C)cc1 has an RP-LC retention time of 1140 s.
O=S(=O)(c1ccc(C2CCCCC2)cc1)N1CCOCC1 gave an RP-LC retention time of 1050 s.
